Measured values: patent US20060265776A1, “Viability” (priority 2003, published 2006)
Entries after “also recorded” stand apart in the source; their conditions may differ.

Key:
[1] = system: bean plants; assay: Leaf infiltration, bean; assay type: in vivo, Phaseolus vulgaris; details: apyrase, hexokinase; 100 mM glucose
Protocol: (§1) Tobacco (Nicotiana tabacum), Arabidopsis, and bean (Phaseolus vulgaris) plants were sown in soil and raised in a growth cabinet with a 16-hour photoperiod at 20° C. and 8 hours of darkness at 15° C. The relative humidity was maintained at 60% and the photon flux density was 250 μmolm^−2 s^−1. […] Only the cotyledons of bean plants were treated. The abaxial surface of a small zone of leaf tissue was treated by infiltrating the apoplast with the solution using a syringe and hypodermic needle. The three test solutions had the following concentrations of either: 0.5 units/μL apyrase, 1.85 units/μL hexokinase plus 100 mM glucose, or 1-5 mM AMP-PCP (pH 6.5).

[2] = system: Arabidopsis thaliana cell suspension cultures; assay type: cell-based
Protocol: A. thaliana cell cultures were grown as described in example 1. Aliquots of the cell suspension (1.5 mL) were treated with a final concentration of 0, 20, 50, or 100 units/mL of apyrase. […] The dead cells had become buoyant and adhered to the walls of the vials, forming a ring just above the edge of the swirling medium. The ring of cells was sometimes dislodged and fell into the medium, resulting in apyrase-treated cultures having flakes of dead cells at the bottom of the vials.
To quantify the effect of apyrase on cell viability, the ability of the cells to grow and multiply subsequent to treatment was measured after diluting the cultures by over 30 times in fresh medium not containing any additives. This was achieved by transferring the cells treated for 3 days to 50 mL of fresh growth medium and allowing them to grow for a further 4 days. At the end of this period, triplicate 1 mL aliquots were sampled from the cultures and the volume of the cells was measured and expressed as a percentage of the culture volume. The method used to determine the packed cell volume was as follows: 1 mL cell culture aliquots were placed in 1.5 mL microfuge tubes and the cells gently compacted by centrifuging (1000 rpm., 10 minutes) in a swing-out rotor (Grundrotor 11030; Sigma laborzentrifugen GmbH, Oestrode, Germany). The level of the cells was marked on the wall of the tube and the volume of cells determined by measuring the volume of water needed to fill the tube to the marked level. The packed cell volume was expressed as the volume occupied by cells as a percentage of 1000 μL.
In each case the error bars represent the standard deviation.

[3] = system: tobacco leaves; assay: Leaf infiltration, tobacco; assay type: in vivo, Nicotiana tabacum
Protocol: as §1

[4] = system: Arabidopsis thaliana cell suspension cultures; assay: Viability staining with fluorescein diacetate and propidium iodide; assay type: cell-based; details: apyrase-treated cultures, 3 days
Protocol: The inventors decided to use viability staining to confirm cell death in these cell cultures. To achieve this, […] aliquots were removed from the cultures and the cells resuspended in 0.2M CaCl2 after removal of the growth medium. The aliquots were doubly-stained by incubating for 5 minutes with a final concentration of 25 μg/mL fluorescein diacetate [0.5% (w/v) stock solution in acetone] and 50 μg/mL propidium iodide [10 mg/mL stock solution in phosphate-buffered saline pH 7.4]. […] The viable cells had also excluded propidium iodide, which is non-permeative and can only cross membranes of dead or dying cells. Dead cells had taken up propidium iodide, which binds to DNA, resulting in nuclei emitting a very intense red fluorescence.

[5] = system: Black Mexican sweet corn cells; assay: Cell viability of corn suspension cells; assay type: cell-based, Zea mays; details: 1 mM ATP, 1 mM AMP-PCP, 100 units/mL apyrase, 200 units/mL hexokinase; 100 mM glucose in culture
[6] = system: Tobacco (Nicotiana tabacum), Arabidopsis, and bean (Phaseolus vulgaris) plants; assay: Leaf infiltration of extracellular ATP depletion systems, whole plants; assay type: in vivo; details: 0.5 units/μL apyrase, 1.85 units/μL hexokinase plus 100 mM glucose, 1-5 mM AMP-PCP (pH 6.5); ATP (pH 6.5)
Protocol: as §1
The concentrations used were the same as defined above unless stated otherwise.

In the case of apyrase, the “necrotic lesions on bean leaves” value [1] is reported as “development of necrotic lesions on leaves”, the loss in viability [2] is reported as “over 80%” and the “cell death seen in cultures” value ([2]; 20, 50 or 100 units/mL apyrase, incubated for 3 days) is reported as “showed a significant frequency of cell death”. For the same substance, the “cell viability with increasing concentration (dose-response), in words” value ([2]; apyrase 0-100 units/mL, hexokinase 0-200 units/mL with 100 mM glucose, AMP-PCP 0-1.5 mM) was “progressive decrease in cell viability”, the “local tissue death after infiltration of tobacco leaves” value ([3]; 1 mM AMP-PCP, 1 mM ATP, apyrase, hexokinase plus glucose) was “development of localised necrotic lesions” and the “state of tobacco plant after treatment of a leaf” value ([3]; 5 mM AMP-PCP or equivalent amount of ATP, after 4 days) was “Comparable results”. For the same substance, the “dead cells by viability staining” value [4] was “significantly high proportion of cells in the apyrase-treated cell cultures was dead”, the “viability of corn cells” value [5] was “caused significant cell death” and the “necrotic lesions after local leaf infiltration” value [6] was “development of necrotic lesions in the area where the application was made within 2 days of treatment; also recorded: localised necrotic lesions”.
